The values below are quoted from earlier work in patent US5321022A, “Compositions for percutaneous administration” (Kanebo, Ltd., priority 1989, dated 1994).

SMILES strings stand for the structures.

The conditions of this series: cf: U.S. Pat. No. 4430343.

Take `CCOCCn1c(N2CCCN(C)CC2)nc2ccccc21` [emedastine, 1-(2-Ethoxyethyl)-2-(hexahydro-4-methyl-1H-1,4-diazepin-1-yl)-1H-benzimidazole]: the “antihistaminic activity (in words)” value was “strong antihistaminic activity”.
